From patent US8618101B2, “N-((1R,2S,5R)-5-(tert-butylamino)-2-((S)-3-(7-tert-butylpyrazolo[1,5-a][1,3,5]triazin-4-ylamino)-2-oxopyrrolidin-1-yl)cyclohexyl)acetamide, a dual modulator of chemokine receptor activity, crystalline forms and processes” (Bristol-Myers Squibb Company, priority 2009, dated 2013)

Legend:
hERG = target: T1, hERG (Homo sapiens, UniProt Q12809); test: hERG Flux (Tl+ flux, FLIPR); type: cell-based; conditions: HEK293 cells expressing hERG
T1 construct: expressed in transfected cells; host or cells: HEK293
Procedure: HEK293 cells stably-expressing hERG channels were grown (37° C., 5% CO2) in Dulbecco's Modified Eagle's Media supplemented with 10% Sigma fetal bovine serum, non-essential amino acids, 2 mM L-glutamine and 500 μg/ml G418, at incubator. Cell dissociation buffer was used to extract the cells from flasks, which were then plated into 384-well CORNING® poly-D-lysine coated black/clear plates at a density of 2×10^4 cells per well (20 μl) in 10% serum media, and incubated for 15-24 hours at 37° C. in a 5% CO2 incubator until a confluent monolayer of cells was obtained. […]
The test compound was diluted to 10 mM DMSO in 60 μl. […] Assay-ready plates were generated by stamping 2.5 μl from the DMSO serially diluted plate, which was prepared on the Velocity 11 BIOCEL®. Aqueous plates were created by adding 48 μl of EP buffer and then were diluted 30-45 minutes before the assay was read on the FLIPR®. […] Assay-ready aqueous plates were prepared and diluted on a CyBio liquid handler.
Cells loaded with dye were read on the FLIPR®384 (Molecular Devices, Sunnyvale, Calif.), which excites the dye using the 488 nm line of an argon laser. […]
The dynamic range of the assay was determined from blanks and totals wells. […] Data were analyzed by fitting maximum amplitudes of change in fluorescence for Tl^+ flux for a given condition of test compound.

CCR-5 [1] = target: T2, CCR-5 (Homo sapiens, UniProt P51681); test: CCR-5 chemotaxis, MIP-1β-induced, peripheral T cells; type: cell-based
T2 construct: human peripheral T cells was used as a source of CCR-5; endogenous in cells; host or cells: human peripheral T cells from donors pre-screened for high CCR-5 expression
Source text: Therefore, blood donors were pre-screened for high T-cell expression of CCR-5. hPBMCs were first isolated from human whole blood by standard protocol with Ficoll-Hypaque. Flow cytometric analysis was then used to measure CCR-5 expression on T cells following staining with anti-CCR-5 antibody plus anti-CD4 antibody or anti-CD8 antibody. Those blood donors in which >5% peripheral T cells (CD4^+ and CD8^+) express CCR-5 were requested to provide blood again for isolation of PBMCs and, subsequently, of T cells using a standard E-rosetting technique which relies on the unique ability of T cells to bind to sheep red blood cells (RBCs).
A similar procedure to that set forth above was adopted except that isolated peripheral T cells was used as CCR-5-expressing cells and MIP-1β (50 nM, PeproTech Inc.) was the ligand.

CCR-5 [2] = target: T2, CCR-5; test: CCR-5 calcium mobilization, HT1080/CCR-5 cells; type: cell-based; conditions: MIP-1β 50 nM, read-out: CCR-5 ^2+ Flux IC50
CCR-5 [3] = target: T2, CCR-5; test: CCR-5 whole blood CD11b upregulation; type: cell-based; conditions: MIP-1β 50 nM
Procedure: Similar procedure to the CCR-2 whole blood CD11b upregulation procedure set forth above was adopted except that MIP-1β (50 nM) was used as the ligand.

[4] = Single-dose pharmacokinetics in rats; conditions: male, Sprague-Dawley, rat
Procedure: Male Sprague-Dawley rats (250-300 g) were used for the pharmacokinetic studies. Rats were fasted overnight prior to PO dosing and fed 4 h post dose. Blood samples (˜0.3 mL) were collected from the jugular vein into K2EDTA-containing tubes and then centrifuged at 4° C. (1500-2000×g) to obtain plasma. […] Serial blood samples were obtained at 0.17 (for IV only), 0.25, 0.5, 0.75, 1, 2, 4, 6, 8, and 24 h post dose. Plasma samples, obtained by centrifugation at 4° C. (1500-2000×g), were stored at −20° C. until analysis by LC/MS/MS.
The pharmacokinetic parameters were obtained by non-compartmental analysis of plasma concentration vs. time data (Kinetica software, Version 4.2, InnaPhase Corporation, Philadelphia, Pa.). The peak concentration (Cmax) and time for Cmax were recorded directly from experimental observations. The area under the curve from time zero to the last sampling time (AUC(0-T)) was calculated using a combination of linear and log trapezoidal summations. The total plasma clearance (CLTp), steady-state volume of distribution (Vss), apparent elimination half-life (T½) and mean residence time (MRT) were estimated after IV administration. Estimations of T½ was made using a minimum of 3 time points with quantifiable concentrations. The absolute oral bioavailability (F) was estimated as the ratio of dose-normalized AUC values following oral and IV doses.

human CCR-2 = target: T3, human CCR-2 (Homo sapiens, UniProt P41597); test: Human CCR-2 binding assay with hPBMCs, 125I-human MCP-1 tracer; design: hPBMCs were isolated from human leukopak; host or cells: human peripheral blood mononuclear cells
T3 sequence (P41597 1-360 isoform P41597-2): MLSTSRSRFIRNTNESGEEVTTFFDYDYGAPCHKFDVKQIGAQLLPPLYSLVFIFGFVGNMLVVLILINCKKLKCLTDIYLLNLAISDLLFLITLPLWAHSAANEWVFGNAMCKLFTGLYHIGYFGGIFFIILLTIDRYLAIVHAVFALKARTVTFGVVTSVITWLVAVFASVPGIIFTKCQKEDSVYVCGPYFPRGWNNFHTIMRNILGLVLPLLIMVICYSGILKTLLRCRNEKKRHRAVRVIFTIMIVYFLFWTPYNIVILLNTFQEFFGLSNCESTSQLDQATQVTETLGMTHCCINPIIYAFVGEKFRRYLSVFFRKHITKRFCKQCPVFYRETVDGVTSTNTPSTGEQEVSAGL
Procedure: See also: Yoshimura et al., J. Immunol., 145:292 (1990). […] This was followed by adding 25 μl of Microscint 20 into each well. The plate was sealed and counted on the Trilux for 1 minute. […] All conditions were tested in duplicate.

T2 sequence (P51681 whole entry): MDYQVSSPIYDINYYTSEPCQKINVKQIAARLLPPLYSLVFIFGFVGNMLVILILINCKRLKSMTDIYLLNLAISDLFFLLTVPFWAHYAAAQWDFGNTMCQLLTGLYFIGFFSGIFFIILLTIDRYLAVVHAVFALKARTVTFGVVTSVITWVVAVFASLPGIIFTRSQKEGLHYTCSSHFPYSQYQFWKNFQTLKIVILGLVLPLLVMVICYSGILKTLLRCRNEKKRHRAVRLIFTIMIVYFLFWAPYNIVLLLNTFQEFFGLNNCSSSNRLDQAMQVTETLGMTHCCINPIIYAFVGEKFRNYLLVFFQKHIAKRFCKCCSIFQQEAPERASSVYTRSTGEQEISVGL
T1 sequence (Q12809 whole entry): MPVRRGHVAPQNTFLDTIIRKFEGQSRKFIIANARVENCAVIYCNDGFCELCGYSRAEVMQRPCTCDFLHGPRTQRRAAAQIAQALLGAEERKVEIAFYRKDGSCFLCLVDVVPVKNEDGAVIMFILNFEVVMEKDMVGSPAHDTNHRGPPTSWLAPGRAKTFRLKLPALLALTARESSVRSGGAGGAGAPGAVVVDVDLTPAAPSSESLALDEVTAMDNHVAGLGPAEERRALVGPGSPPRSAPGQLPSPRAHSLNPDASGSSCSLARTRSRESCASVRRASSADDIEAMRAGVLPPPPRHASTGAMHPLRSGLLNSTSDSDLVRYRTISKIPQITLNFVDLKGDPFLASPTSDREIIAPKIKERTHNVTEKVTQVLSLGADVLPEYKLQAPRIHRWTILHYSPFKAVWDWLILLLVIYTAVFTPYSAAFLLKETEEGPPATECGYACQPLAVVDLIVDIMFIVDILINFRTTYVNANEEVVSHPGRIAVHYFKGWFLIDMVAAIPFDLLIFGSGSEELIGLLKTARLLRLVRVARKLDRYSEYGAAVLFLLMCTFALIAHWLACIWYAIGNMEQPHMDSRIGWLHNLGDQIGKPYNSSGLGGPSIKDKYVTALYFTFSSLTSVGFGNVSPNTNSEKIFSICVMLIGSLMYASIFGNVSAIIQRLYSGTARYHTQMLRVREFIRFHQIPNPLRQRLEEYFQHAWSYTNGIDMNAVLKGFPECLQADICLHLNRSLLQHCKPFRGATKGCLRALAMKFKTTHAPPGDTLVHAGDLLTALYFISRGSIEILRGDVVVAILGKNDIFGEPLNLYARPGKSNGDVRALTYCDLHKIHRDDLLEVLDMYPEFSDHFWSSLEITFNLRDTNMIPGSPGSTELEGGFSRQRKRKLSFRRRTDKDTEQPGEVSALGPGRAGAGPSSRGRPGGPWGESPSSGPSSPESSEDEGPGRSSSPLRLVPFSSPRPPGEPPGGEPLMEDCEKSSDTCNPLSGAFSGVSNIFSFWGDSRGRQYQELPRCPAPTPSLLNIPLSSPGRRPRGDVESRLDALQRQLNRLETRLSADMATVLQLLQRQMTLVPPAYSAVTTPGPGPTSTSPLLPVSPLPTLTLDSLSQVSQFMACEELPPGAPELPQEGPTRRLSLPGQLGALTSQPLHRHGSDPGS

Structure (SMILES): CC(=O)N[C@@H]1C[C@H](NC(C)(C)C)CC[C@@H]1N1CC[C@H](Nc2ncnc3cc(C(C)(C)C)nn23)C1=O [Example 1, N-((1R,2 S,5R)-5-(tert-Butylamino)-2-((S)-3-(7-tert-butylpyrazolo[1,5-a][1,3,5]triazin-4-ylamino)-2-oxopyrrolidin-1-yl)cyclohexyl)acetamide]
- IC50 (hERG): > 80000 nM
- IC50 (CCR-5 [1]): 1.1 ± 0.6 nM
- IC50 (CCR-5 [2]): 2 ± 1.4 nM
- IC50 (CCR-5 [3]): 5.7 nM
- clearance ([4]; in vivo, 2 mg/kg): 49.7 mL/min/kg
- bioavailability ([4]; in vivo, 10 mg/kg): 94%
- AUC ([4]; plasma, oral, 10 mg/kg): 6.5 µM·h
- Ki (human CCR-2; average, read-out: average Ki for binding to hCCR-2): 2 nM
- IC50 (human CCR-2; hPBMCs, 125I-human MCP-1): 6.2 ± 2.7 nM
